Results published in ChEMBL document CHEMBL4616630, “Amide-Iminoate Isomerism in Antineuroinflammatory Isoquinoline Alkaloids from Stephania cepharantha” (J Nat Prod, 2020).
pIC50: −log10 of the molar value.

These compounds were tested on BV-2 (assay: Ant-inflammatory LPS-induced mouse BV2 cells assessed as reduction in NO production after 24 hrs by Griess reagent based assay). Conditions: BV-2, 24 h.
Format: functional, cell-based

| SMILES | pIC50 |
| --- | --- |
| COC1=C2[C@H]3Cc4ccc(OC)c(O)c4[C@]2(CCN3C=O)C[C@H](OC(C)=O)[C@@H]1OC(C)=O | < 4.00 |
| COC1=C2[C@H]3Cc4ccc(OC)c(O)c4[C@]2(CCN3C=O)C[C@H](O)[C@@H]1O | 4.43 |
| COc1cc2c3c(c1OC)C1(C=CC(=O)C=C1)C[C@H]3N(C=O)CC2 | < 4.00 |
| CN(C)c1ccc(O)c2c1C[C@H]1C[C@H]3[C@H](N(C)C)C(O)=C(C(N)=O)C(=O)[C@@]3(O)C(O)=C1C2=O [MINOCYCLINE] | 4.76 |
| COc1ccc2cc1Oc1ccc(cc1)C[C@H]1c3cc(c(OC)cc3CCN1C=O)Oc1c(OC)c(OC)cc3c1[C@@H](C2)N(C)CC3 | 4.90 |
| COC1=C2[C@H]3Cc4ccc(OC)c(O)c4[C@]2(CCN3C=O)C[C@H](O)[C@@H]1OC(C)=O | < 4.00 |
| O=CN1CCc2cc3c(c4c2[C@H]1Cc1cc(O)ccc1-4)OCO3 | < 4.00 |
| COC1=C2[C@H]3Cc4ccc(OC)c(O)c4[C@]2(CCN3C=O)C[C@H](OC(C)=O)[C@@H]1O | < 4.00 |
| COc1ccc2cc1Oc1ccc(cc1)C[C@H]1c3c(cc4c(c3Oc3cc5c(cc3OC)CCN(C=O)[C@@H]5C2)OCO4)CCN1C | 4.92 |
